Results taken from US8785500B2, “Intranasal administration of ketamine to treat depression” (priority 2006, dated 2014).

How the values were obtained:
[1] = Intranasal versus intravenous ketamine plasma levels; conditions: human, other: intranasal
Procedure: The slow infusion of ketamine produces gradually increasing plasma levels during the infusion period. Dose-wise, the typical ketamine dose for surgical induction is between 1.0-2.0 mg/kg, with additional ketamine used to sustain anesthesia.

[2] = in vivo; cited from earlier work
NMDA receptor = conditions: cited from earlier work
[3] = tested on: women after abdominal gynecological surgery with lidocaine epidural blockade; conditions: cited from earlier work
[4] = tested on: subjects with DSM-IV treatment-resistant major depression; assay: Randomized, placebo-controlled, double-blind crossover study of a single intravenous ketamine hydrochloride infusion; conditions: for effect size for the drug difference (d), HDRS: ketamine vs placebo
Text: Treatment-resistant major depression is a relatively common occurrence in clinical practice, with up to 50 to 60% of patients not achieving adequate response following antidepressant treatment. […] If the depression has not benefited from at least two adequate trials of medications from different classes in the current episode, clinically significant resistance is present. Several schemes to “stage” the degree of resistance have been proposed. The most widely accepted scheme uses the staging system of Thase and Rush. The stages of resistance are as follows:
Thus, the patient population to be treated by the present invention may be defined according to any one or more of the above schemes. After a 2-week drug-free period, exemplary subjects having treatment-resistant depression were given an intravenous infusion of either ketamine hydrochloride (0.5 mg/kg) or placebo on 2 test days, a week apart. Subjects were rated at baseline and at 40, 80 minutes, 110 minutes, 230 minutes and days 1, 2, 3 and 7 post-infusion. The outcome of the treatment was measured using changes in scores on the primary efficacy to measure the 21-item Hamilton Depression Rating Scale (HDRS).
Men and women, ages 18 to 65 years, who were inpatients with a diagnosis of major depressive disorder recurrent without psychotic features as diagnosed by means of the Structured Clinical Interview for Axis I DSM-IV Disorders—Patient Version 28 were eligible to participate.
All subjects were in good physical health as determined by medical history, physical exam, blood labs, electrocardiogram, chest x-ray, urinalysis and toxicology. Subjects were free of comorbid substance abuse or dependence for at least 3 months and judged clinically not to be a serious suicidal risk.
After a 2 week drug-free period, 18 subjects with DSM-IV major depression were randomized to an intravenous infusion of either ketamine hydrochloride (0.5 mg/kg) or placebo (saline solution) given over 40 minutes with a Baxter infusion pump on 2 test days, a week apart, in a double-blind, crossover study. Seventeen subjects received ketamine and 14 received placebo.
Subjects were rated 60 minutes prior to the infusion and at 40, 80, 110, and 230 minutes as well as 1, 2, 3, and 7 days after the infusion. The 21-item HDRS, Beck Depression Inventory Scale (BDI; [31]), Brief Psychiatric Rating Scale-positive symptoms (BPRS; [32]), Young Mania Rating Scale (YMRS; [33]), and the visual analogue scales score (VAS-depression; [34]). Raters, who trained together to establish reliability, performed patient ratings. […] Subjects were rated by a separate set of raters to help maintain blind to the infusion procedures and resulting side effects. The first set of raters administered the scales on the day of infusion (60 minutes prior to the infusion and 40, 80, 110 post-infusion). From 230 minutes onwards (days 1 through 7), a separate group of raters rated the subjects. Clinical response was defined as a 50% or greater decrease in the HDRS rating scale from baseline and remission as HDRS≦7 [35].
A full factorial, fixed effects linear mixed model with a compound symmetry covariance structure was used to examine the differences between ketamine and placebo over 9 time points from baseline to 7 days. Restricted maximum likelihood estimation was used to estimate missing values. Significant effects were examined with simple effects tests. The 21-item HDRS was the primary outcome measure. Scores from the BDI, BPRS, YMRS, and VAS were secondary outcome measures. Secondary analysis included examination of the individual items of the HDRS. Significance was evaluated at α<0.05, two-tailed.

[5] = in vivo; cited from earlier work; remark: listed apart in the source
[6] = tested on: men and women with intractable central neuropathic pain; conditions: cited from earlier work; for pain disability and subjective physical and mental function: 75 mg transdermally over 24 hours for 7 days
male Wistar rats = conditions: single dose; cited from earlier work
[7] = tested on: subjects with major depression; conditions: cited from earlier work
[8] = tested on: chronic pain patients with breakthrough pain (BTP); conditions: 10-50 mg intranasal; cited from earlier work
[9] = tested on: non-NMDA voltage-gated potassium currents; conditions: in vitro; cited from earlier work
major depression [10] = conditions: reviews of antidepressant trials; cited from earlier work
[11] = clinical trials; cited from earlier work
major depression [12] = conditions: administered orally; cited from earlier work
[13] = both, human, in vivo, intravenous, 0.5 mg/kg
[14] = one day after infusion, intent to treat, n=17

For CNC1(c2ccccc2Cl)CCCCC1=O (racemic) [ketamine, 2-(2-chlorophenyl)-2-(methylamino)-cyclohexanone], the “i.v. dose roughly equivalent to the intranasal dose used for pain (50 mg)” value [1] is given as ~0.1 mg/kg, the half-life [2] is given as “approximately 2 hours” and the “affinity for the NMDA receptor in contrast to memantine” value (NMDA receptor) is given as “higher affinity for the NMDA receptor”. The “affinity for the NMDA receptor versus other sites” value (NMDA receptor) was “several fold higher than that for other sites”, the “open channel blocking/unblocking kinetics in contrast to memantine” value (NMDA receptor) was “much slower open channel blocking/unblocking kinetics” and the side effects ([3]; transdermal 25 mg over 24 hrs) was “no side effects”. The “time to rescue analgesic” value ([3]; transdermal patch 25 mg/24 hours, placebo 94±54) was 230 ± 112 min, the “onset of improvement in depression post-infusion” value ([4]; HDRS vs placebo) was ≤ 2 h and the “effect size for the drug difference (d), HDRS” value ([4]; after 1 week, completers) was 0.68. For the same compound, the “effect size for the drug difference (d), HDRS” value ([4]; after 24 hours, completers) was 1.46, the “only time at which BPRS positive symptoms were worse on ketamine than placebo” value [4, 13] was 40 min and the “only time at which YMRS scores were worse (higher) on ketamine than placebo” value [4, 13] was 40 min. For the same compound, the “time beyond which euphoria or derealization/depersonalization did not persist” value [4, 13] was ≤ 110 min, the “earliest improvements, depressed mood and guilt (HDRS items)” value ([4]; completers) was 40 min and the “individual HDRS symptoms with only a significant main effect for drug” value ([4]; completers) was “symptoms improved on ketamine for suicide, insomnia, general somatic symptoms, genital symptoms, and hypochondriasis”. The “individual HDRS symptoms with significant time by drug interaction” value ([4]; completers) was “Depressed mood, guilt, work and interests, and psychic anxiety improved significantly”, the “time at which motor retardation and gastrointestinal symptoms (HDRS items) were worse” value ([4]; completers) was 40 min and the “time by which HDRS scores were lower on ketamine” value ([4]; first phase data only, significant through the seventh day) was 80 min. For the same compound, the “baseline HDRS in the second phase of those who received ketamine first (carryover)” value ([4]; first-phase baseline 24.9±6.9, one week after infusion) was 17.2±6.9, the “Peak change in BPRS positive symptoms on Ketamine, Group” value ([4]; group mean ±) was “+3.1 ± 3.4” and the “% Change in HDRS (day 1) Ketamine, Group” value ([4]; group mean ±, 0.5 mg/kg i.v. over 40 min, baseline to day 1) was −56.2 ± 20.4%. The “side effects occurring more commonly on ketamine than placebo” value ([4]; in vivo) was “perceptual disturbances, confusion, elevations in blood pressure, euphoria, dizziness, and increased libido”, the “time after infusion within which side effects ceased” value ([4]; majority of side effects) was ≤ 80 min and the “subjects meeting remission criteria (HDRS≦7)” value [4, 14] was 29%. The “subjects meeting response criteria (50% or greater decrease in HDRS)” value [4, 14] was 71%, the “subjects who maintained response at least 2 weeks” value ([4]; single infusion 0.5 mg/kg) was 2 subjects and the “subjects who maintained response for at least 1 week” value ([4]; single infusion 0.5 mg/kg) was 35%. For the same compound, the “time from which VAS depression (mood) improved on ketamine” value ([4]; through 7 days) was 40 min, the “time from which self-rated BDI improved on ketamine” value ([4]; through 7 days, completers) was 40 min and the “intranasal plasma levels (pain) lower than in intravenous studies in depression” value [5] was 3-4 fold. The “pain disability and subjective physical and mental function” value [6] was “significant improvement in pain disability, and subjective physical and mental function”, the “time for which induction of behavioral despair is interfered with” value (male Wistar rats) was “up to 10 days” and the “patients with 50% or greater decrease in HDRS during the 3-day follow-up period” value ([7]; Berman et al.) was 4 of 8. The “onset of antidepressant effect post-infusion” value ([7]; previous study (Berman et al.)) was 230 min, the antidepressant effect ([7]; single intravenous dose, 7 subjects) was “rapid and short-lived antidepressant effect” and the “breakthrough pain versus placebo” value [8] was “lower BTP”. For the same compound, the side effects [8] was “very few side effects” and the “effect on non-NMDA voltage-gated potassium currents” value [9] was “only reduces non-NMDA voltage-gated potassium currents at much higher than reported in patients anesthetized with ketamine”.

For CN[C@]1(c2ccccc2Cl)CCCCC1=O [S(+)-ketamine], the “pain intensity (Visual Analog Scale)” value ([6]; 50 mg, 75 mg or placebo) is listed as “no change among groups”, the “pain disability and subjective physical and mental function” value [6] is listed as “significant improvement in pain disability, and subjective physical and mental function” and the “dissociation or psychotic symptoms” value ([6]; in vivo) is listed as “no reports of dissociation or psychotic symptoms”.

In the case of CC(NC(C)(C)C)C(=O)c1cccc(Cl)c1 (centres unmarked) [bupropion], the “response rates at week 8” value (major depression [10]) is given as 62%.

For Nc1nnc(-c2cccc(Cl)c2Cl)c(N)n1 [lamotrigine], the antidepressant properties [11] is given as “found to have antidepressant properties”.

For CC12CC3CC(C)(C1)CC(N)(C3)C2 [memantine], the antidepressant effects (major depression [12]) is given as “did not show the low- to moderate-affinity non-competitive NMDA antagonist memantine, administered orally, to have antidepressants effects”.

In the case of NC1(c2ccccc2Cl)CCCCC1=O (centres unmarked) [norketamine], the half-life [2] is listed as ~5 h.

For Nc1nc2ccc(OC(F)(F)F)cc2s1 [riluzole], the antidepressant properties [11] is listed as “found to have antidepressant properties”.

In the case of COc1ccc(C(CN(C)C)C2(O)CCCCC2)cc1 (centres unmarked) [venlafaxine], the “response rates at week 8” value (major depression [10]) is given as 65%.
